From ChEMBL document CHEMBL1127298, “Bis-catechol-substituted redox-reactive analogues of hexamethonium and decamethonium: stimulated affinity-dependent reactivity through iron peroxide catalysis” (J Med Chem, 1994) come the findings set out here.

In assay [1] the target is T1, Acetylcholine receptor (Torpedo californica, UniProt P02710+P02712+P02714+P02718). Description: Compound was evaluated for the binding constant for association with nicotinic acetylcholine receptor (nAChR). It counts as protein-complex assay, Tetronarce californica.
T1 sequence (P02710 whole entry): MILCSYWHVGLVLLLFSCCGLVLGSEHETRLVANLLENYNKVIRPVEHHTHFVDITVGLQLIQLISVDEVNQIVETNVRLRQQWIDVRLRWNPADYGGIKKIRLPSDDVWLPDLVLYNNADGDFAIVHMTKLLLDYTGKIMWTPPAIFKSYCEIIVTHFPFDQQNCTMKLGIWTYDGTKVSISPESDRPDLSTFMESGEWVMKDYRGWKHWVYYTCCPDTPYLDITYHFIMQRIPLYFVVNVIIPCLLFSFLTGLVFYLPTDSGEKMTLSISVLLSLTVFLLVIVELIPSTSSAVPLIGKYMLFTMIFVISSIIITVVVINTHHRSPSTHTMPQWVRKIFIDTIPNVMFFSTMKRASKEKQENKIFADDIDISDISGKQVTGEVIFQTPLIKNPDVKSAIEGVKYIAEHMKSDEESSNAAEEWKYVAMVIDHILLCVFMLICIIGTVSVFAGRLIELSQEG
T1 sequence (P02712 whole entry): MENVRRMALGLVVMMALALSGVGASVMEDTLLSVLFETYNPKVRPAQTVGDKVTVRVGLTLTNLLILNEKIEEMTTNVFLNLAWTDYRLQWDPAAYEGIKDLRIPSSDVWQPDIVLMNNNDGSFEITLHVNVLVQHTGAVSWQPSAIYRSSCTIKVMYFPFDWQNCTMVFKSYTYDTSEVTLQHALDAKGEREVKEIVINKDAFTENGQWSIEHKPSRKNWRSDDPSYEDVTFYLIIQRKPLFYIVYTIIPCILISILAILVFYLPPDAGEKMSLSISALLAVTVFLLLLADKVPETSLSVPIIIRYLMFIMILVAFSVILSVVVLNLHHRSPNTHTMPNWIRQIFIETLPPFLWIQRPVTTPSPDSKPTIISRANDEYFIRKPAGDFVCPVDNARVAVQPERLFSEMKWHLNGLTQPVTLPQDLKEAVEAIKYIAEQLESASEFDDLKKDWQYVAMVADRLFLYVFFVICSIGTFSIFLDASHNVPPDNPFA
T1 sequence (P02718 whole entry): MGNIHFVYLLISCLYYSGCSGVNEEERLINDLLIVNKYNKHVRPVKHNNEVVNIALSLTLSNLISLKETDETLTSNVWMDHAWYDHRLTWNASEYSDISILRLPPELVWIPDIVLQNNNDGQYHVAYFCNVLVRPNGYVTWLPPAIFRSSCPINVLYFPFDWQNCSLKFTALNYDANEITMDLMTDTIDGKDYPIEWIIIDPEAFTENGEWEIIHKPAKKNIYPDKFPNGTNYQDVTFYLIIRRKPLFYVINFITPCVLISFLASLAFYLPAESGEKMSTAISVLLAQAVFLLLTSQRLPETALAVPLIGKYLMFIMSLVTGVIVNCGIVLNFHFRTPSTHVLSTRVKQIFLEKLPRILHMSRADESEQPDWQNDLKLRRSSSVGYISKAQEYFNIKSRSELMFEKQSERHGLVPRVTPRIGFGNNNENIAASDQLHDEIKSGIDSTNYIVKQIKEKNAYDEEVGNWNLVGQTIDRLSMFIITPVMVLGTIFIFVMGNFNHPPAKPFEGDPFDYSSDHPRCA
T1 sequence (P02714 whole entry): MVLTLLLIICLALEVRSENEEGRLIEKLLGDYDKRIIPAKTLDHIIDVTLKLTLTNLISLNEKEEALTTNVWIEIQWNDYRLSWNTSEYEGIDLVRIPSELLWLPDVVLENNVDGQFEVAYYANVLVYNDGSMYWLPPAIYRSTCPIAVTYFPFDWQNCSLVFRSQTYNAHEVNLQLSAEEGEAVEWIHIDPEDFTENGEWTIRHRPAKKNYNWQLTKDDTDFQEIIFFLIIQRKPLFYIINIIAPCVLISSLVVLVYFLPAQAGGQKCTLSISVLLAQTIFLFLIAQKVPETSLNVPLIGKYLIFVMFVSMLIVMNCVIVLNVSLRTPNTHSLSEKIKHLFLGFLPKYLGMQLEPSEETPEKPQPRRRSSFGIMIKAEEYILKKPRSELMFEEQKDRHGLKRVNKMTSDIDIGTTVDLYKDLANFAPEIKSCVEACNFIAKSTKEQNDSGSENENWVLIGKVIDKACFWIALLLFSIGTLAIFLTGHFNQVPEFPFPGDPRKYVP
Assay [2] has as its target T1, Acetylcholine receptor. Put plainly: Binding affinity against nicotinic acetylcholine receptor (nAChR). Type of assay: protein-complex assay, Tetronarce californica.

The Kd is the equilibrium constant for the complex coming apart. A high value points to lower affinity. The Ki is the equilibrium dissociation constant of an inhibitor or competing ligand from its target. Low values mean higher affinity, high ones lower affinity.

Each structure is given as a SMILES string.

On to `C[N+](C)(CCCCCC[N+](C)(C)Cc1cccc(O)c1O)Cc1cccc(O)c1O`, for which, at Acetylcholine receptor [1], binding was characterised by a dissociation constant (Kd) of 18 nM. The molecule also registered an inhibition constant (Ki) on Acetylcholine receptor [2] of 18 nM.

On to `C[N+](C)(CCCCCCCCCC[N+](C)(C)Cc1cccc(O)c1O)Cc1cccc(O)c1O`, for which the affinity on Acetylcholine receptor [1], expressed as Kd, was 230 nM.

`C[N+](C)(C)Cc1cccc(O)c1O` yielded an inhibition constant Ki on Acetylcholine receptor [2] of 28000 nM.

Take `C[N+](C)(C)CCCCCC[N+](C)(C)C` [HEXAMETHONIUM BROMIDE]: the Kd at Acetylcholine receptor [1] was 18 nM.
